Reference: patent US8399214B2 (Evonik Degussa GmbH, priority 2005, dated 2013)
“And” between values parts separate entries of the source, which are not always exact repeats. Equal entries are not always repeated. Where two headings read alike, the source gives them in different places.

Tests used:
microorganisms = settings: gaseous state; cited from earlier work
[1] = test system: C. glutamicum M2014 (parent); experiment: Test tube growth in methionine-free medium, DMDS added directly; settings: M2014; MF + Met 40 mg/l; 36 hours at 30° C.
Excerpt: (§1) M2014 was transformed with plasmid pOM86 (FIG. 9) (SEQ ID NO:8) to yield a “Campbell in” strain. The “Campbell in” strain was then “Cambelled out” to yield a “Campbell out” strain named OM63.

[2] = test system: C. glutamicum OM101 (ΔmetF, ΔmetB); settings: Met 100 mg/ml, XAD4, 60 hours at 30° C.
Procedure: (§5) A test tube experiment was performed with M2014 derivatives that contain different combinations of deletions of metY, metB, and metF. […] The inoculum was approximately 5×10^3 cells per tube. Cells were grown at 30° C. in a platform shaker for 60 hours, and cell densities were measured at OD600.

C. glutamicum M2014 [3] = experiment: Test tube growth in methionine-free medium with mineral oil as DMDS delivery system; settings: MF + Met 100 mg/l, no oil, 24 hours at 30° C.
Excerpt: (§2) Other possible delivery systems include synthetic oils, organic solvents, chloro-carbons, fluoro-carbons, or chloro-fluoro-carbons.

[4] = test system: C. glutamicum OM246C (ΔmetH, ΔmetE); settings: OM246C, 24 hours at 30° C.
Excerpt: as §2

[5] = test system: C. glutamicum OM63 (ΔmetF); assay type: cell-based; settings: MF + Met 40 mg/l, 36 hours at 30° C.
Excerpt: as §1

[6] = test system: C. glutamicum OM101C (ΔmetF, ΔmetB); assay type: cell-based; settings: met 100 mg/l, XAD4, 24 hours at 30° C.
Procedure: (§3) To each test tube 100 μl of a sterile suspension of XAD4 in water (50% v/v) was added.

[7] = test system: C. glutamicum OM246C (ΔmetE, ΔmetH); assay type: cell-based; settings: met 100 mg/l, XAD4, 24 hours at 30° C.
Procedure: as §3

C. glutamicum M2014 [8] = experiment: Test tube growth in methionine-free medium with Amberlite XAD4 as DMDS delivery system; settings: M2014, XAD4
Procedure: (§4) To this end, test tube experiments using 5 ml of medium were performed on OM63 and M2014.
as §3

[9] = test system: C. glutamicum OM174 (ΔmetF, ΔmetB, ΔmetY); settings: Met 100 mg/ml, XAD4, 60 hours at 30° C.
Procedure: as §5

[10] = test system: C. glutamicum OM63 (ΔmetF)
Procedure: as §4, §3

[11] = test system: C. glutamicum OM158 (ΔmetF, ΔmetY); settings: Met 100 mg/ml, XAD4, 60 hours at 30° C.
Procedure: as §5

[12] = test system: C. glutamicum OM246C (ΔmetH, ΔmetE); assay type: cell-based; settings: 24 hours at 30° C.
Excerpt: as §2

C. glutamicum M2014 [13] = experiment: Test tube growth in methionine-free medium with canola oil as DMDS delivery system; assay type: cell-based; settings: 24 hours at 30° C.
Excerpt: as §2

C[Se][Se]C [DMDSe, dimethyldiselenide]
toxicity to microorganisms (microorganisms): toxic to microorganisms in a gaseous state

CSCC[C@H](N)C(=O)O [Met, methionine, reference compound]
Optical densities at 600 nm [1]: 5.8
OD600 [2]: 1.8
Optical densities at 600 nm (C. glutamicum M2014 [3]): 4.6 and 4.8
Optical densities at 600 nm ([4]; MF + Met 100 mg/l, no oil): 4.9 and 4.7
Optical densities at 600 nm ([4]; MF + Met + Mineral Oil): 1.5 and 1.8
Optical densities at 600 nm [5]: 5.2
Optical densities at 600 nm [6]: 1.9 and 2.1
Optical densities at 600 nm [7]: 3.9 and 4.3
Optical densities at 600 nm (C. glutamicum M2014 [8]; Met 40 mg/l, 42 hours at 30° C.): 7.1
OD600 (C. glutamicum M2014 [8]; Met 100 mg/ml, 60 hours at 30° C.): 2.2 and 2.3
Optical densities at 600 nm (C. glutamicum M2014 [8]; met 100 mg/l, 24 hours at 30° C.): 4.4 and 4.7
OD600 [9]: 1.5 and 1.2
Optical densities at 600 nm ([10]; Met 40 mg/l, XAD4, 42 hours at 30° C.): 4.4
OD600 ([10]; Met 100 mg/ml, XAD4, 60 hours at 30° C.): 1.6 and 1.9
Optical densities at 600 nm ([10]; met 100 mg/l, XAD4, 24 hours at 30° C.): 2.4 and 3.0
OD600 [11]: 3.2 and 2.7
Optical densities at 600 nm ([12]; MF + Met 100 mg/l, no oil): 4.9 and 4.7
Optical densities at 600 nm ([12]; MF + Met + Canola Oil): 3.7 and 3.0
Optical densities at 600 nm (C. glutamicum M2014 [13]; MF + Met 100 mg/l, no oil): 4.6 and 4.8
Optical densities at 600 nm (C. glutamicum M2014 [13]; MF + Met + Canola Oil): 3.8 and 3.5
